Entries after “also recorded” stand apart in the source; their conditions may differ.
system: peptide-pulsed T2 cells; assay: IFN-gamma ELISPOT assay on CTLs induced with INHBB-derived peptides; assay type: cell-based, human; conditions: target cells pulsed with the peptide vs control not pulsed, after 3rd round of stimulation, day 21
Source text: Monocyte-derived dendritic cells (DCs) were used as antigen-presenting cells (APCs) to induce cytotoxic T lymphocyte (CTL) responses against peptides presented on human leukocyte antigen (HLA). DCs were generated in vitro as described elsewhere (Nakahara S et al., Cancer Res 2003 Jul 15, 63(14): 4112-8). Specifically, peripheral blood mononuclear cells (PBMCs) isolated from a normal volunteer (HLA-A*0201 positive) by Ficoll-Plaque (Pharmacia) solution were separated by adherence to a plastic tissue culture dish (Becton Dickinson) so as to enrich them as the monocyte fraction. The monocyte-enriched population was cultured in the presence of 1000 U/ml of granulocyte-macrophage colony-stimulating factor (GM-CSF) (R&D System) and 1000 U/ml of interleukin (IL)-4 (R&D System) in AIM-V Medium (Invitrogen) containing 2% heat-inactivated autologous serum (AS). After 7 days of culture, the cytokine-induced DCs were pulsed with 20 mcg/ml of each of the synthesized peptides in the presence of 3 mcg/ml of beta2-microglobulin for 3 hr at 37 degrees C. in AIM-V Medium. The generated cells appeared to express DC-associated molecules, such as CD80, CD83, CD86 and HLA class II, on their cell surfaces (data not shown). These peptide-pulsed DCs were then inactivated by Mitomycin C (MMC) (30 mcg/ml for 30 min) and mixed at a 1:20 ratio with autologous CD8+ T cells, obtained by positive selection with CD8 Positive Isolation Kit (Dynal). These cultures were set up in 48-well plates (Corning); each well contained 1.5×10^4 peptide-pulsed DCs, 3×10^5 CD8+ T cells and 10 ng/ml of IL-7 (R&D System) in 0.5 ml of AIM-V/2% AS medium. Three days later, these cultures were supplemented with IL-2 (CHIRON) to a final concentration of 20 IU/ml. On day 7 and 14, the T cells were further stimulated with the autologous peptide-pulsed DCs. The DCs were prepared each time by the same way described above. CTL was tested against peptide-pulsed T2 cells after the 3rd round of peptide stimulation on day 21 (Tanaka H et al., Br J Cancer 2001 Jan. 5, 84(1): 94-9; Umano Y et al., Br J Cancer 2001 Apr. 20, 84(8): 1052-7; Uchida N et al., Clin Cancer Res 2004 Dec. 15, 10(24): 8577-86; Suda T et al., Cancer Sci 2006 May, 97(5): 411-9; Watanabe T et al., Cancer Sci 2005 Aug, 96(8): 498-506).
Specifically, peptide-pulsed T2 (1×10^4/well) was prepared as stimulator cells. Cultured cells in 48 wells were used as responder cells. IFN-gamma ELISPOT assay and IFN-gamma ELISA assay were performed under manufacture procedure.

Substance	IFN-gamma production of peptide-induced CTLs (specific CTL activity)
INHBB-A02-9-8: 9-mer HLA-A*0201 binding epitope peptide derived from INHBB (ALGAACLLL)	potent IFN-gamma production as compared to the control; also recorded: potent IFN-gamma production as compared with the control
INHBB-A02-9-139: 9-mer HLA-A*0201 binding epitope peptide derived from INHBB (RVSEIISFA)	potent IFN-gamma production as compared to the control; also recorded: potent IFN-gamma production as compared with the control
INHBB-A02-9-174: 9-mer HLA-A*0201 binding epitope peptide derived from INHBB (VQASLWLYL)	potent IFN-gamma production as compared to the control; also recorded: potent IFN-gamma production as compared with the control
INHBB-A02-9-213: 9-mer HLA-A*0201 binding epitope peptide derived from INHBB (NMVEKRVDL)	potent IFN-gamma production as compared to the control; also recorded: potent IFN-gamma production as compared with the control
INHBB-A02-9-250: 9-mer HLA-A*0201 binding epitope peptide derived from INHBB (VQCDSCQEL)	potent IFN-gamma production as compared to the control; also recorded: potent IFN-gamma production as compared with the control
INHBB-A02-9-257: 9-mer HLA-A*0201 binding epitope peptide derived from INHBB (ELAVVPVFV)	potent IFN-gamma production as compared to the control; also recorded: potent IFN-gamma production as compared with the control
INHBB-A02-9-313: 9-mer HLA-A*0201 binding epitope peptide derived from INHBB (RLIGWNDWI)	potent IFN-gamma production as compared to the control; also recorded: potent IFN-gamma production as compared with the control
INHBB-A02-10-85: 10-mer HLA-A*0201 binding epitope peptide derived from INHBB (RLQMRGRPNI)	potent IFN-gamma production as compared to the control; also recorded: potent IFN-gamma production as compared with the control
INHBB-A02-10-162: 10-mer HLA-A*0201 binding epitope peptide derived from INHBB (FISNEGNQNL)	potent IFN-gamma production as compared to the control; also recorded: potent IFN-gamma production as compared with the control
INHBB-A02-10-173: 10-mer HLA-A*0201 binding epitope peptide derived from INHBB (VVQASLWLYL)	potent IFN-gamma production as compared to the control; also recorded: potent IFN-gamma production as compared with the control
INHBB-A02-10-179: 10-mer HLA-A*0201 binding epitope peptide derived from INHBB (WLYLKLLPYV)	potent IFN-gamma production as compared to the control; also recorded: potent IFN-gamma production as compared with the control
INHBB-A02-10-237: 10-mer HLA-A*0201 binding epitope peptide derived from INHBB (ALFERGERRL)	potent IFN-gamma production as compared to the control; also recorded: potent IFN-gamma production as compared with the control
INHBB-A02-10-256: 10-mer HLA-A*0201 binding epitope peptide derived from INHBB (QELAVVPVFV)	potent IFN-gamma production as compared to the control; also recorded: potent IFN-gamma production as compared with the control
INHBB-A02-10-313: 10-mer HLA-A*0201 binding epitope peptide derived from INHBB (RLIGWNDWII)	potent IFN-gamma production as compared to the control; also recorded: potent IFN-gamma production as compared with the control

system: peptide-pulsed T2 cells; assay: IFN-gamma ELISA assay on expanded CTL line; assay type: cell-based, human; conditions: CTL line expanded from positive well #7, peptide-pulsed target vs target without peptide pulse
Source text: Monocyte-derived dendritic cells (DCs) were used as antigen-presenting cells (APCs) to induce cytotoxic T lymphocyte (CTL) responses against peptides presented on human leukocyte antigen (HLA). DCs were generated in vitro as described elsewhere (Nakahara S et al., Cancer Res 2003 Jul 15, 63(14): 4112-8). Specifically, peripheral blood mononuclear cells (PBMCs) isolated from a normal volunteer (HLA-A*0201 positive) by Ficoll-Plaque (Pharmacia) solution were separated by adherence to a plastic tissue culture dish (Becton Dickinson) so as to enrich them as the monocyte fraction. The monocyte-enriched population was cultured in the presence of 1000 U/ml of granulocyte-macrophage colony-stimulating factor (GM-CSF) (R&D System) and 1000 U/ml of interleukin (IL)-4 (R&D System) in AIM-V Medium (Invitrogen) containing 2% heat-inactivated autologous serum (AS). After 7 days of culture, the cytokine-induced DCs were pulsed with 20 mcg/ml of each of the synthesized peptides in the presence of 3 mcg/ml of beta2-microglobulin for 3 hr at 37 degrees C. in AIM-V Medium. The generated cells appeared to express DC-associated molecules, such as CD80, CD83, CD86 and HLA class II, on their cell surfaces (data not shown). […]

Substance	IFN-gamma production / specific CTL activity of established CTL line
INHBB-A02-9-174: 9-mer HLA-A*0201 binding epitope peptide derived from INHBB (VQASLWLYL)	potent IFN-gamma production as compared with the control

same assay, conditions: CTL line expanded from positive well #7, peptide-pulsed target vs target without peptide pulse, listed as SEQ ID NO: 2

Substance	IFN-gamma production / specific CTL activity of established CTL line
INHBB-A02-9-174: 9-mer HLA-A*0201 binding epitope peptide derived from INHBB (VQASLWLYL)	higher specific CTL activity against the peptide-pulsed target as compared to the activity against target without peptide pulse

Source: patent US20110280898A1, “INHBB EPITOPE PEPTIDES AND VACCINES CONTAINING THE SAME” (Oncotherapy Science, Inc., priority 2008, published 2011)
